Source: PubChem BioAssay AID2060886 (Molecular Pharmacology Branch, DTP, NCI, 2025)

Test system: 653999-131-R-J2-PDC complex spheroids, growth inhibition
Test: Anticancer human tumor 653999-131-R-J2-PDC patient-derived lung adenocarcinoma cell line growth inhibition [RAS]
Conditions: for IC50: curve of first compound; for viability, T/C: stronger effect = lower value; active = viability on the fitted dose curve at most 10% of control; inactive = the rest
Summary of the method: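 Multi-cell-type spheroids: tumor cells plus HUVEC endothelial cells and mesenchymal stem cells. RAS-pathway inhibitors were combined with targeted agents, each dosed in half-log steps down from clinical Cmax, or from 10 microM when Cmax was unknown.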

[1] = second compound 0.000949 µM, first compound 0.0316 µM
[2] = second compound 0.000949 µM, first compound 0.1 µM
[3] = second compound 0.000949 µM, first compound 0.316 µM
[4] = second compound 0.000949 µM, first compound 1 µM
[5] = second compound 0.003 µM, first compound 0.0316 µM
[6] = second compound 0.003 µM, first compound 0.1 µM
[7] = second compound 0.003 µM, first compound 0.316 µM
[8] = second compound 0.003 µM, first compound 1 µM
[9] = second compound 0.00949 µM, first compound 0.0316 µM
[10] = second compound 0.00949 µM, first compound 0.1 µM
[11] = second compound 0.00949 µM, first compound 0.316 µM
[12] = second compound 0.00949 µM, first compound 1 µM
[13] = second compound 0.03 µM, first compound 0.0316 µM
[14] = second compound 0.03 µM, first compound 0.1 µM
[15] = second compound 0.03 µM, first compound 0.316 µM
[16] = second compound 0.03 µM, first compound 1 µM
[17] = second compound 0.0949 µM, first compound 0.0316 µM
[18] = second compound 0.0949 µM, first compound 0.1 µM
[19] = second compound 0.0949 µM, first compound 0.316 µM
[20] = second compound 0.0949 µM, first compound 1 µM
[21] = second compound 0.3 µM, first compound 0.0316 µM
[22] = second compound 0.3 µM, first compound 0.1 µM
[23] = second compound 0.3 µM, first compound 0.316 µM
[24] = second compound 0.3 µM, first compound 1 µM
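Note: spheroids exposed to the agents for seven days before the readout.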

CC1(C)CCC(Nc2ncc(C(F)(F)F)c(-c3c[nH]c4c(P(C)(C)=O)c(C#N)ccc34)n2)CN1 (stereo unspecified) + CCn1c(-c2cc(N3CCN(C)CC3)cnc2C(C)OC)c2c3cc(ccc31)-c1csc(n1)CC(NC(=O)C1CC1C)C(=O)N1CCCC(N1)C(=O)OCC(C)(C)C2
> 300 nM: IC50 (second compound 0.000949 µM)
inactive: viability, T/C (second compound 0.000949 µM, first compound 0.000949 µM) 60.9% | viability, T/C (second compound 0.000949 µM, first compound 0.003 µM) 58.4% | viability, T/C (second compound 0.000949 µM, first compound 0.00949 µM) 56.4% | viability, T/C (second compound 0.000949 µM, first compound 0.03 µM) 45.1% | viability, T/C (second compound 0.000949 µM, first compound 0.0949 µM) 56.4% | viability, T/C (second compound 0.000949 µM, first compound 0.3 µM) 61.2% | viability, T/C (second compound 0.003 µM, first compound 0.000949 µM) 51% | viability, T/C (second compound 0.003 µM, first compound 0.003 µM) 41.6% | viability, T/C (second compound 0.003 µM, first compound 0.00949 µM) 40.8% | viability, T/C (second compound 0.003 µM, first compound 0.03 µM) 44.7% | viability, T/C (second compound 0.003 µM, first compound 0.0949 µM) 41.1% | viability, T/C (second compound 0.003 µM, first compound 0.3 µM) 38.2% | viability, T/C (second compound 0.00949 µM, first compound 0.000949 µM) 35.9% | viability, T/C (second compound 0.00949 µM, first compound 0.003 µM) 24.3% | viability, T/C (second compound 0.00949 µM, first compound 0.00949 µM) 21.4% | viability, T/C (second compound 0.00949 µM, first compound 0.03 µM) 21.6% | viability, T/C (second compound 0.00949 µM, first compound 0.0949 µM) 27.6% | viability, T/C (second compound 0.00949 µM, first compound 0.3 µM) 22.3% | viability, T/C (second compound 0.03 µM, first compound 0.000949 µM) 17.8% | viability, T/C (second compound 0.03 µM, first compound 0.003 µM) 18.3% | viability, T/C (second compound 0.03 µM, first compound 0.00949 µM) 17.4% | viability, T/C (second compound 0.03 µM, first compound 0.03 µM) 13.4% | viability, T/C (second compound 0.03 µM, first compound 0.0949 µM) 15.9% | viability, T/C (second compound 0.03 µM, first compound 0.3 µM) 16.5% | viability, T/C (second compound 0.0949 µM, first compound 0.000949 µM) 16.4% | viability, T/C (second compound 0.0949 µM, first compound 0.003 µM) 17.8% | viability, T/C (second compound 0.0949 µM, first compound 0.00949 µM) 14.5% | viability, T/C (second compound 0.0949 µM, first compound 0.03 µM) 14.4% | viability, T/C (second compound 0.0949 µM, first compound 0.0949 µM) 14.1% | viability, T/C (second compound 0.0949 µM, first compound 0.3 µM) 16.3% | viability, T/C (second compound 0.3 µM, first compound 0.000949 µM) 14.5% | viability, T/C (second compound 0.3 µM, first compound 0.003 µM) 15.2% | viability, T/C (second compound 0.3 µM, first compound 0.00949 µM) 14.7% | viability, T/C (second compound 0.3 µM, first compound 0.03 µM) 14.8% | viability, T/C (second compound 0.3 µM, first compound 0.0949 µM) 13.7% | viability, T/C (second compound 0.3 µM, first compound 0.3 µM) 15.7%
< 0.949 nM: IC50 (second compound 0.003 µM) | IC50 (second compound 0.00949 µM) | IC50 (second compound 0.03 µM) | IC50 (second compound 0.0949 µM) | IC50 (second compound 0.3 µM)

CCC(CC)c1cc(NC2CCC(N)C2)n2nccc2n1 (stereo unspecified) + CCn1c(-c2cccnc2C(C)OC)c2c3cc(ccc31)N1CCOC(CC(NC(=O)C(C(C)C)N(C)C(=O)C3(F)CCN(C(=O)C#CC(C)(C)N(C)C)CC3)C(=O)N3CCCC(N3)C(=O)OCC(C)(C)C2)C1
2090 nM: IC50 (second compound 0.03 µM)
1910 nM: IC50 (second compound 0.3 µM)
1980 nM: IC50 (second compound 0.003 µM)
1940 nM: IC50 (second compound 0.00949 µM)
1840 nM: IC50 (second compound 0.0949 µM)
inactive: viability, T/C [1] 101% | viability, T/C [2] 99.6% | viability, T/C [3] 102% | viability, T/C [4] 98.6% | viability, T/C (second compound 0.000949 µM, first compound 3.16 µM) 15% | viability, T/C (second compound 0.000949 µM, first compound 10 µM) 22.1% | viability, T/C [5] 111% | viability, T/C [6] 107% | viability, T/C [7] 106% | viability, T/C [8] 95.9% | viability, T/C (second compound 0.003 µM, first compound 3.16 µM) 17.7% | viability, T/C (second compound 0.003 µM, first compound 10 µM) 18.7% | viability, T/C [9] 102% | viability, T/C [10] 114% | viability, T/C [11] 106% | viability, T/C [12] 93% | viability, T/C (second compound 0.00949 µM, first compound 3.16 µM) 14.4% | viability, T/C (second compound 0.00949 µM, first compound 10 µM) 22.5% | viability, T/C [13] 96% | viability, T/C [14] 107% | viability, T/C [15] 114% | viability, T/C [16] 112% | viability, T/C (second compound 0.03 µM, first compound 3.16 µM) 17% | viability, T/C (second compound 0.03 µM, first compound 10 µM) 19.1% | viability, T/C [17] 97.5% | viability, T/C [18] 115% | viability, T/C [19] 121% | viability, T/C [20] 88.5% | viability, T/C (second compound 0.0949 µM, first compound 3.16 µM) 12% | viability, T/C (second compound 0.0949 µM, first compound 10 µM) 20% | viability, T/C [21] 92.1% | viability, T/C [22] 97.6% | viability, T/C [23] 108% | viability, T/C [24] 92.1% | viability, T/C (second compound 0.3 µM, first compound 3.16 µM) 13.7% | viability, T/C (second compound 0.3 µM, first compound 10 µM) 20.5%
2010 nM: IC50 (second compound 0.000949 µM)

CCN1CCN(Cc2ccc(Nc3ncc(F)c(-c4cc(F)c5nc(C)n(C(C)C)c5c4)n3)nc2)CC1 + CCn1c(-c2cc(N3CCN(C)CC3)cnc2C(C)OC)c2c3cc(ccc31)-c1csc(n1)CC(NC(=O)C1CC1C)C(=O)N1CCCC(N1)C(=O)OCC(C)(C)C2
inactive: viability, T/C (second compound 0.000949 µM, first compound 0.00316 µM) 81.5% | viability, T/C (second compound 0.000949 µM, first compound 0.01 µM) 62.4% | viability, T/C [1] 66.9% | viability, T/C [2] 58.1% | viability, T/C [3] 62.6% | viability, T/C [4] 58% | viability, T/C (second compound 0.003 µM, first compound 0.00316 µM) 63.4% | viability, T/C (second compound 0.003 µM, first compound 0.01 µM) 66.9% | viability, T/C [5] 62.3% | viability, T/C [6] 49.5% | viability, T/C [7] 46.2% | viability, T/C [8] 47.5% | viability, T/C (second compound 0.00949 µM, first compound 0.00316 µM) 56.6% | viability, T/C (second compound 0.00949 µM, first compound 0.01 µM) 45.9% | viability, T/C [9] 37% | viability, T/C [10] 30.4% | viability, T/C [11] 34% | viability, T/C [12] 33.1% | viability, T/C (second compound 0.03 µM, first compound 0.00316 µM) 24.2% | viability, T/C (second compound 0.03 µM, first compound 0.01 µM) 30.9% | viability, T/C [13] 30.9% | viability, T/C [14] 24.4% | viability, T/C [15] 26.3% | viability, T/C [16] 29.4% | viability, T/C (second compound 0.0949 µM, first compound 0.00316 µM) 30.6% | viability, T/C (second compound 0.0949 µM, first compound 0.01 µM) 26.6% | viability, T/C [17] 15.7% | viability, T/C [18] 22.2% | viability, T/C [19] 24.3% | viability, T/C [20] 25.4% | viability, T/C (second compound 0.3 µM, first compound 0.00316 µM) 23.3% | viability, T/C (second compound 0.3 µM, first compound 0.01 µM) 24.7% | viability, T/C [21] 17.5% | viability, T/C [22] 17.7% | viability, T/C [23] 18.1% | viability, T/C [24] 29.2%
< 3.16 nM: IC50 (second compound 0.03 µM) | IC50 (second compound 0.0949 µM) | IC50 (second compound 0.3 µM)
> 1000 nM: IC50 (second compound 0.000949 µM)
5.9 nM: IC50 (second compound 0.00949 µM)
94.8 nM: IC50 (second compound 0.003 µM)
